From US4912104A, “Tricyclic fused pryimidine derivatives, and their use as pharmaceuticals” (Takeda Chemical Industries, Ltd., priority 1987, dated 1990)

Legend:
Phenyl quinone writhing = assay: Analgesic action (Phenyl quinone writhing method); assay type: in vivo, Slc: ICR mice; details: Mus musculus, 20 min; 50 mg/kg oral, 30 minutes before phenyl quinone; 20 minutes counting; mice; read-out: Inhibition rate, Phenyl quinone writhing
Description: Analgesic action (Phenyl quinone writhing method)
Using a group of 10 Slc: ICR mice (4 week old, male), analgesic action was investigated in accordance with the method of Siegmund et al. [Proc. Soc. Exp. Biol. Med., 95, 729(1957)]. A test sample in a dose of 50 mg/kg was orally administered, and 30 minutes later, a 0.02% aqueous phenyl quinone solution was intraperitoneally injected in the proportion of 0.1 ml relative to 10 g of body weight. Over the period of 20 minutes from the injection, the number of writhings was counted for the individual animals. By comparing the untreated and treated animal groups for the number of reactions, the writhing inhibition rate was determined.

Carrageenin edema = assay: Antiinflammatory action (Carrageenin edema method); assay type: in vivo, Jcl: SD rats; details: Rattus norvegicus; 50 mg/kg oral, one hour before carrageenin; paw volume 3 hours later; rats; read-out: Inhibition rate, Carrageenin edema
Description: (1) Antiinflammatory action (Carrageenin edema method)
Using a group of six Jcl: SD rats (6 week old, male), antiinflammatory action was investigated in accordance with the method of Winter et al. [Proc. Soc. Exp. Biol. Med., 111, 544(1962)]. One hour after the oral administration of 50 mg/kg of a test sample, the animals were injected subcutaneously with 0.05 ml each of a 1% solution of carrageenin in physiological saline solution into a sole. The volume of the hind-paw was measured 3 hours later and compared with that before the injection, and the edema volume was determined from the difference. By comparing the edema volumes of animal groups untreated and treated with test samples, the inhibition rate was determined.

[1] = tested on: Reversed passive Arthus reaction; assay: Antiinflammatory action (Reversed passive Arthus reaction); assay type: in vivo, Jcl: SD rats; details: Rattus norvegicus, 1 h; 12.5 mg/kg oral, one hour before the injection of egg albumin; rats; read-out: Inhibition rate, Reversed passive Arthus reaction
Description: (2) Antiinflammatory action (Reversed passive Arthus reaction)
A group consisting of six Jcl: SD rats (7 week old, male was used. The hair of the back of the animals was cut, under ether anesthesia, and 1 ml each of a 0.5% solution of egg albumin in physiological saline solution was injected into the tail vein of each test animal, followed by intradermal injection of 0.1 ml of rabbit anti-egg albumin antiserum at each side of the left and right of the back and a further intradermal injection of 0.1 ml of physiological saline solution at the left side. Three hours later, each animal was intravenously injected with 1 ml of 1% Evans' blue physiological saline solution. Thirty minutes later, the test animals were exfoliated and the area(mm^2) of each of the blue spot was measured. The test sample in a dose of 12.5 mg/kg was orally administered one hour before the injection of egg albumin. By comparing the area(mm^2) of the blue spot in the test group with that of the control group, inhibition rate was determined.

Jcl: ICR mice = details: mouse, in vivo
Description: A group of 5 Jcl: Wistar rats (5 week old, 90-110 g body weight, Japan Clea, male) and a group of 5 Jcl: ICR mice (5 week old, 25-30 g body weight, Japan Clea, male) were used. These rats were each administerred orally with 10 ml/kg of the test compound (250 mg/kg), while these mice were each administered orally with 20 ml/kg of the test compound (500 mg/kg).
These oral administrations were made on the form of a suspension in 5% gum arabic vehicle. One week later, the number of dead animals was observed.

[2] = tested on: acute hepatic failure due to P. acnes-LPS; assay: Effect against acute hepatic failure due to P. acnes-LPS (anti-lethal effect); assay type: in vivo, BALB/c mice; details: 0.3 mg/kg, p.o., one hour prior to LPS, 48 hours later; for Anti-lethal effect: Number of dead mice: group of 10, control 10 dead
Description: A group of 10 BALB/c mice (7 week old, male) was used. Each mouse was injected into the tail vein with P. acnes killed by heating at a dose of 1 mg/mouse. Seven days later, each mouse was injected intravenously with LPS(1 l μg/mouse) derived from Salmonella enteritidis to cause acute hepatic failure. Usually, in a group of mice intravenously injected with LPS, 90% to 100% of the animals die within 24 hours. Using this model, each compound was tested. Each compound(I) shown in Table 2 was suspended in a 5% gum arabic vehicle and was orally administered to the animals at 0.3 mg/kg one hour prior to the injection of LPS, and then 48 hours later, the number of the dead mice was determined. The mice in the control group were orally given the 5% gum arabic vehicle one hour prior to LPS administration.

## CCCCn1c(=O)n(CCC)c(=O)c2c3n(nc21)CCN3C [compound 1]
Phenyl quinone writhing
  inhibition in vivo at 50 mg/kg: 97%
Carrageenin edema
  inhibition in vivo at 50 mg/kg: 70%
[1]
  inhibition in vivo at 12.5 mg/kg: 32%

## CCCCn1c(=O)n(CCC)c(=O)c2c3n(nc21)CCN3 [compound 2]
Phenyl quinone writhing
  inhibition in vivo at 50 mg/kg: 100%
Carrageenin edema
  inhibition in vivo at 50 mg/kg: 103%
[1]
  inhibition in vivo at 12.5 mg/kg: 65%

## CCCCn1c(=O)c2c3n(nc2n(CCCC)c1=O)CCN3 [compound 3]
Phenyl quinone writhing
  inhibition in vivo at 50 mg/kg: 98%
Carrageenin edema
  inhibition in vivo at 50 mg/kg: 100%
[1]
  inhibition in vivo at 12.5 mg/kg: 68%

## CCCCCn1c(=O)n(CCC)c(=O)c2c3n(nc21)CCN3 [compound 6]
Phenyl quinone writhing
  inhibition in vivo at 50 mg/kg: 96%
Carrageenin edema
  inhibition in vivo at 50 mg/kg: 105%
[1]
  inhibition in vivo at 12.5 mg/kg: 71%

## CCn1c(=O)c2c3n(nc2n(CC)c1=O)CCN3 [compound 7]
Phenyl quinone writhing
  inhibition in vivo at 50 mg/kg: 52%
Carrageenin edema
  inhibition in vivo at 50 mg/kg: 99%
[1]
  inhibition in vivo at 12.5 mg/kg: 42%

## CCCn1c(=O)c2c3n(nc2n(CC)c1=O)CCN3 [compound 10]
Phenyl quinone writhing
  inhibition in vivo at 50 mg/kg: 87%
Carrageenin edema
  inhibition in vivo at 50 mg/kg: 100%
[1]
  inhibition in vivo at 12.5 mg/kg: 36%

## CCCn1c(=O)c2c3n(nc2n(CCC)c1=O)CCN3 [compound 13]
Phenyl quinone writhing
  inhibition in vivo at 50 mg/kg: 95%
Jcl: ICR mice
  number of dead animals, Mice: 0
Carrageenin edema
  inhibition in vivo at 50 mg/kg: 97%
[1]
  inhibition in vivo at 12.5 mg/kg: 65%

## CCCn1c(=O)c2c3n(nc2n(CCC(C)C)c1=O)CCN3 [compound 17]
Phenyl quinone writhing
  inhibition in vivo at 50 mg/kg: 79%
Carrageenin edema
  inhibition in vivo at 50 mg/kg: 83%
[1]
  inhibition in vivo at 12.5 mg/kg: 73%

## C=CCn1c(=O)n(CCC)c(=O)c2c3n(nc21)CCN3 [compound 18]
Phenyl quinone writhing
  inhibition in vivo at 50 mg/kg: 90%
Carrageenin edema
  inhibition in vivo at 50 mg/kg: 93%
[1]
  inhibition in vivo at 12.5 mg/kg: 87%

## C=CCn1c(=O)c2c3n(nc2n(CC=C)c1=O)CCN3 [compound 29]
Phenyl quinone writhing
  inhibition in vivo at 50 mg/kg: 80%
Carrageenin edema
  inhibition in vivo at 50 mg/kg: 79%
[1]
  inhibition in vivo at 12.5 mg/kg: 73%

## CCCn1c(=O)c2c3n(nc2n(CCC)c1=O)CCN3C(=O)CC [compound 33]
Phenyl quinone writhing
  inhibition in vivo at 50 mg/kg: 77%
Carrageenin edema
  inhibition in vivo at 50 mg/kg: 87%
[1]
  inhibition in vivo at 12.5 mg/kg: 87%

## CCCCn1c(=O)n(CCC)c(=O)c2c3n(nc21)CCN3C(C)=O [compound 40]
Phenyl quinone writhing
  inhibition in vivo at 50 mg/kg: 89%
Jcl: ICR mice
  number of dead animals, Mice: 0
Carrageenin edema
  inhibition in vivo at 50 mg/kg: 82%
[1]
  inhibition in vivo at 12.5 mg/kg: 69%

## CCCCn1c(=O)n(CCC)c(=O)c2c1nn1cc[nH]c21 [compound 43]
Phenyl quinone writhing
  inhibition in vivo at 50 mg/kg: 89%
Carrageenin edema
  inhibition in vivo at 50 mg/kg: 109%
[1]
  inhibition in vivo at 12.5 mg/kg: 90%
[2]
  Anti-lethal effect: effective ratio: 100%
  Anti-lethal effect: Number of dead mice: 0

## CCCn1c(=O)c2c(nn3cc[nH]c23)n(CCC)c1=O [compound 44]
Phenyl quinone writhing
  inhibition in vivo at 50 mg/kg: 96%
Carrageenin edema
  inhibition in vivo at 50 mg/kg: 90%
[1]
  inhibition in vivo at 12.5 mg/kg: 91%
[2]
  Anti-lethal effect: effective ratio: 100%
  Anti-lethal effect: Number of dead mice: 0

## C=CCn1c(=O)c2c(nn3cc[nH]c23)n(CC=C)c1=O [compound 45]
Phenyl quinone writhing
  inhibition in vivo at 50 mg/kg: 87%
Carrageenin edema
  inhibition in vivo at 50 mg/kg: 85%
[1]
  inhibition in vivo at 12.5 mg/kg: 74%
[2]
  Anti-lethal effect: effective ratio: 100%
  Anti-lethal effect: Number of dead mice: 0

## CCCCn1c(=O)c2c(nn3cc[nH]c23)n(CCCC)c1=O [compound 46]
Phenyl quinone writhing
  inhibition in vivo at 50 mg/kg: 96%
Carrageenin edema
  inhibition in vivo at 50 mg/kg: 90%
[1]
  inhibition in vivo at 12.5 mg/kg: 70%
[2]
  Anti-lethal effect: effective ratio: 80%
  Anti-lethal effect: Number of dead mice: 2

## CCCn1c(=O)c2c(nn3cc[nH]c23)n(CC(C)C)c1=O [compound 48]
Phenyl quinone writhing
  inhibition in vivo at 50 mg/kg: 91%
Carrageenin edema
  inhibition in vivo at 50 mg/kg: 95%
[1]
  inhibition in vivo at 12.5 mg/kg: 93%
[2]
  Anti-lethal effect: effective ratio: 90%
  Anti-lethal effect: Number of dead mice: 1

## C=CCn1c(=O)n(CCC)c(=O)c2c1nn1cc[nH]c21 [compound 49]
Phenyl quinone writhing
  inhibition in vivo at 50 mg/kg: 80%
Carrageenin edema
  inhibition in vivo at 50 mg/kg: 80%
[1]
  inhibition in vivo at 12.5 mg/kg: 88%
[2]
  Anti-lethal effect: effective ratio: 70%
  Anti-lethal effect: Number of dead mice: 3

## CCCCCn1c(=O)n(CCC)c(=O)c2c1nn1cc[nH]c21 [compound 50]
Phenyl quinone writhing
  inhibition in vivo at 50 mg/kg: 89%
Carrageenin edema
  inhibition in vivo at 50 mg/kg: 78%
[1]
  inhibition in vivo at 12.5 mg/kg: 79%
[2]
  Anti-lethal effect: effective ratio: 90%
  Anti-lethal effect: Number of dead mice: 1
